We go through two compounds from PMC10062609 (PLOS ONE, 2023).

This experiment addresses Nicotinamide phosphoribosyltransferase (NAMPT) (Homo sapiens, UniProt P43490). Description: biochemical.

Chain of Nicotinamide phosphoribosyltransferase (NAMPT) (P43490 whole entry): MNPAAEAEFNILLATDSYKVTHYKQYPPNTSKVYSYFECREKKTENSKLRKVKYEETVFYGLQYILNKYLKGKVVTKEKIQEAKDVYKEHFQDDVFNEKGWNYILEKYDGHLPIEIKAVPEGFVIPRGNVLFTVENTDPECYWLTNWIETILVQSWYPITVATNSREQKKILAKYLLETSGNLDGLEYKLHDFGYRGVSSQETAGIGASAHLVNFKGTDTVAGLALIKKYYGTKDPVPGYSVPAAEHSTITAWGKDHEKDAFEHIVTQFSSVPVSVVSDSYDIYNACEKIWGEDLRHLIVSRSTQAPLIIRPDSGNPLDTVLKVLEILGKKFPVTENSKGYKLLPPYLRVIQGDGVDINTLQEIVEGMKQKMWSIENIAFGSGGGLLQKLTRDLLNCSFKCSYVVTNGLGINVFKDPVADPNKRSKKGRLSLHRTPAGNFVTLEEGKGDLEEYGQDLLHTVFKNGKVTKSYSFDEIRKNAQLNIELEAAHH

As a reminder, the EC50 is the midpoint of the concentration-response curve. Read a high EC50 as a need for much substance. For the compound `C[C@@H]1O[C@@H](Oc2c(-c3cc(O)c(O)c(O)c3)oc3cc(O)cc(O)c3c2=O)[C@H](O)[C@H](O)[C@H]1O` [compound 2, Myricitrin], a half-maximal effect (EC50) was put at 6.18 µM.

Regarding `O=c1cc2oc3cc(O)c(O)cc3c(-c3ccccc3O)c-2cc1O` [compound 20, NSC9037], the EC50 came to 3.58 µM.
